From patent publication US20250084091A1, “INHIBITORS OF SARS-COV-2” (The Texas A&M University System, priority 2021, published 2025)
Like-named read-outs stand apart in the source and are kept apart here.

Tests used:
[1] = system: SARS-CoV-2 (strain USA-WA1/2020); assay: microbe, parasite or virus in culture; type: cell-based
HeLa-ACE2 cells = assay: cells; type: cell-based; details: Table 2, total cell count in infected plates
[2] = Uninfected host cell cytotoxicity counter screen; type: cell-based; details: human
Method: Uninfected host cell cytotoxicity counter screen: HeLa-ACE2 cells were maintained as described for the infection assay and seeded in the assay-ready plates at 400 cells/well. Plates were incubated for 24 hours at 37° C. 5% CO2. To assess cell viability, the Image-iT DEAD green reagent was used according to manufacturer instructions. Cells were fixed with 4% paraformaldehyde, and counterstained with DAPI. Fixed cells are imaged as described above.
Viral replication data analysis: Data from the primary screen and the host cell cytotoxicity screen are normalized to neutral (DMSO) […] inhibitor controls (2.5 μM Remdesivir for antiviral effect and 10 μM puromycin for infected host cell toxicity). For the uninfected host cell cytotoxicity counter-screen 40 μM puromycin is used as the positive control. Concentration response experiments will be tested in triplicate.

[3] = target: SARS-CoV-2 main protease (Mpro) (Severe acute respiratory syndrome coronavirus 2, UniProt P0DTD1); assay: biochemical; details: read-out: Enzyme IC50
[4] = Severe acute respiratory syndrome coronavirus 2, Table 2, SARS-CoV-2 infected HeLa-ACE2 cells, read-out: CoV-2 HeLa EC50
[5] = Severe acute respiratory syndrome coronavirus 2, HeLa, Table 3, read-out: CoV-2 HeLa EC50
[6] = Table 3, select example compounds against mpro
[7] = Severe acute respiratory syndrome coronavirus 2, HeLa-ACE2, read-out: CoV-2 HeLa EC50, Table 2, SARS-CoV-2 infected HeLa-ACE2 cells

`COc1cccc(C(c2ccccc2)N2CCN(C(=O)c3cncc(F)c3)CC2)c1` (stereo not drawn) [MKP-1204, 1-(5-fluoropyridine-3-carbonyl)-4-[(3-methoxyphenyl)(phenyl)methyl] piperazine] showed an EC50 [1, 4] of 6660 nM, an EC50 (HeLa-ACE2 cells) of over 9610 nM and a CC50 at 24 h [2] of over 39800 nM. It also gave an IC50 ([3]; Table 2) of 2300 nM.

`O=C(c1cccnc1)N1CCN(C(c2ccccc2)c2ccsc2)CC1` (stereo not drawn) [MKP-1215, 1-[phenyl(thiophen-3-yl)methyl]-4-(pyridine-3-carbonyl)piperazine] gave an EC50 [1, 4] of 2810 nM, an EC50 (HeLa-ACE2 cells) of over 9610 nM and a CC50 at 24 h [2] of over 39800 nM. It also gave an IC50 ([3]; Table 2) of 4500 nM.

Compound `O=C(c1cncc(Br)c1)N1CCN(C(c2ccccc2)c2ccsc2)CC1` (stereo not drawn) [MKP-1220, 1-(5-bromopyridine-3-carbonyl)-4-[phenyl(thiophen-3-yl)methyl]piperazine] has an EC50 [1, 4] of 884 nM, an EC50 (HeLa-ACE2 cells) of 2640 nM and a CC50 at 24 h [2] of over 39800 nM. It also gave an IC50 ([3]; Table 2) of 250 nM.

With `O=C(c1cncc(Cl)c1)N1CCN(C(c2ccccc2)c2ccsc2)CC1` (stereo not drawn) [MKP-1221, 1-(5-chloropyridine-3-carbonyl)-4-[phenyl(thiophen-3-yl)methyl]piperazine] the EC50 [1, 4] was 831 nM, the EC50 (HeLa-ACE2 cells) was 556 nM and the CC50 at 24 h [2] was over 39800 nM. For the same compound, the IC50 ([3]; Table 2) was 330 nM.

Compound `Cc1cncc(C(=O)N2CCN(C(c3ccccc3)c3ccsc3)CC2)c1` (stereo not drawn) [MKP-1222, 1-(5-methylpyridine-3-carbonyl)-4-[phenyl(thiophen-3-yl)methyl]piperazine] has an EC50 [1, 4] of 1400 nM, an EC50 (HeLa-ACE2 cells) of 1240 nM and a CC50 at 24 h [2] of over 39800 nM. It also gave an IC50 ([3]; Table 2) of 370 nM.

For `O=C(c1cncc(Cl)c1)N1CCN(C(c2ccccc2)c2cccc(F)c2)CC1` (stereo not drawn) [MKP-1227, 1-(5-chloropyridine-3-carbonyl)-4-[(3-fluorophenyl)(phenyl)methyl]piperazine], the EC50 [1, 4] was 457 nM, the EC50 (HeLa-ACE2 cells) was 614 nM and the CC50 at 24 h [2] was over 39800 nM. The IC50 ([3]; Table 2) was 88 nM.

For `N#Cc1cncc(C(=O)N2CCN(C(c3ccccc3)c3ccccc3)CC2)c1` [MKP-1230, 5-[4-(diphenylmethyl)piperazine-1-carbonyl]pyridine-3-carbonitrile], the EC50 [1, 4] was 2800 nM, the EC50 (HeLa-ACE2 cells) was over 9610 nM and the CC50 at 24 h [2] was over 39800 nM. The IC50 ([3]; Table 2) was 1300 nM.

`Cc1cncc(C(=O)N2CCN(C(c3ccccc3)c3cccc(C(F)(F)F)c3)CC2)c1` (stereo not drawn) [MKP-1276, 1-(5-methylpyridine-3-carbonyl)-4-{phenyl[3-(trifluoromethyl)phenyl]methyl} piperazine] gave an EC50 [1, 4] of 637 nM, an EC50 (HeLa-ACE2 cells) of 3410 nM and a CC50 at 24 h [2] of 22900 nM. It also gave an IC50 ([3]; Table 2) of 211 nM.

`Cc1cncc(C(=O)N2CCN(C(c3ccc(F)cc3)c3ccccc3F)CC2)c1` (stereo not drawn) [MKP-1277, 1-[(2-fluorophenyl)(4-fluorophenyl)methyl]-4-(5-methylpyridine-3-carbonyl)piperazine] showed an EC50 [1, 4] of 747 nM, an EC50 (HeLa-ACE2 cells) of 2700 nM and a CC50 at 24 h [2] of over 39800 nM. For the same compound, the IC50 ([3]; Table 2) was 150 nM.

Compound `Cc1cncc(C(=O)N2CCN(C(c3ccccc3)c3cc(F)cc(F)c3)CC2)c1` (stereo not drawn) [MKP-1280, 1-[(3,5-difluorophenyl)(phenyl)methyl]-4-(5-methylpyridine-3-carbonyl)piperazine] has an EC50 [1, 4] of 158 nM, an EC50 (HeLa-ACE2 cells) of 261 nM and a CC50 at 24 h [2] of over 39800 nM. The IC50 ([3]; Table 2) was 61 nM.

Compound `Cc1cncc(C(=O)N2CCN(C(c3ccccc3)c3ccccc3F)CC2)c1` (stereo not drawn) [MKP-1287, 1-[(2-fluorophenyl)(phenyl)methyl]-4-(5-methylpyridine-3-carbonyl)piperazine] has an EC50 [1, 4] of 599 nM, an EC50 (HeLa-ACE2 cells) of 810 nM and a CC50 at 24 h [2] of over 39800 nM. The IC50 ([3]; Table 2) was 66 nM.

With `Cc1cncc(C(=O)N2CCN(C(c3cccnc3)c3cccc(F)c3)CC2)c1` (stereo not drawn) [MKP-1290, 1-[(3-fluorophenyl)(pyridin-3-yl)methyl]-4-(5-methylpyridine-3-carbonyl)piperazine] the EC50 [1, 5] was 105 nM, the EC50 [1, 4] was 105 nM and the EC50 (HeLa-ACE2 cells) was 186 nM. It also gave a CC50 at 24 h [2] of over 39800 nM, an IC50 ([3]; Table 2) of 96 nM and an IC50 [3, 6] of 96 nM.

`O=C(c1cc[nH]c(=O)c1)N1CCN(C(c2ccccc2)c2ccccc2)CC1` [NZ-769, 4-[4-(diphenylmethyl)piperazine-1-carbonyl]-1,2-dihydropyridin-2-one] gave an EC50 [1, 4] of 8050 nM, an EC50 (HeLa-ACE2 cells) of over 9610 nM and a CC50 at 24 h [2] of over 39800 nM. The IC50 ([3]; Table 2) was 11300 nM.

Work on `O=C(c1cncc(Br)c1)N1CCC(C(O)(c2ccccc2)c2ccccc2)CC1` [NZ-770, [1-(5-bromopyridine-3-carbonyl)piperidin-4-yl]diphenylmethanol] yielded an EC50 [1, 4] of 510 nM, an EC50 (HeLa-ACE2 cells) of over 9610 nM and a CC50 at 24 h [2] of over 39800 nM. For the same compound, the IC50 ([3]; Table 2) was 380 nM.

Compound `O=C(c1cccnc1)N1CCC(=C(c2ccccc2)c2ccccc2)CC1` [NZ-772, 3-[4-(diphenylmethylidene)piperidine-1-carbonyl]pyridine] has an EC50 [1, 4] of 1010 nM, an EC50 (HeLa-ACE2 cells) of over 9610 nM and a CC50 at 24 h [2] of over 39800 nM. It also gave an IC50 ([3]; Table 2) of 320 nM.

`O=C(c1cncc(F)c1)N1CCC(C(O)(c2ccccc2)c2ccccc2)CC1` [NZ-778, [1-(5-fluoropyridine-3-carbonyl)piperidin-4-yl]diphenylmethanol] showed an EC50 [1, 4] of 3630 nM, an EC50 (HeLa-ACE2 cells) of over 9610 nM and a CC50 at 24 h [2] of over 39800 nM. It also gave an IC50 ([3]; Table 2) of 1700 nM.

`O=C(c1cncc(Cl)c1)N1CCC(C(O)(c2ccccc2)c2ccccc2)CC1` [NZ-779, [1-(5-chloropyridine-3-carbonyl)piperidin-4-yl]diphenylmethanol] gave an EC50 [1, 4] of 710 nM, an EC50 (HeLa-ACE2 cells) of over 9610 nM and a CC50 at 24 h [2] of over 39800 nM. For the same compound, the IC50 ([3]; Table 2) was 370 nM.

`O=C(c1cncc(F)c1)N1CCC(=C(c2ccccc2)c2ccccc2)CC1` [NZ-780, 3-[4-(diphenylmethylidene)piperidine-1-carbonyl]-5-fluoropyridine] gave an EC50 [1, 4] of 1390 nM, an EC50 (HeLa-ACE2 cells) of over 9610 nM and a CC50 at 24 h [2] of 30100 nM. The IC50 ([3]; Table 2) was 310 nM.

`O=C(c1cncc(Cl)c1)N1CCC(=C(c2ccccc2)c2ccccc2)CC1` [NZ-781, 3-chloro-5-[4-(diphenylmethylidene)piperidine-1-carbonyl]pyridine] showed an EC50 [1, 4] of 1050 nM, an EC50 (HeLa-ACE2 cells) of over 9610 nM and a CC50 at 24 h [2] of 35800 nM. The IC50 ([3]; Table 2) was 110 nM.

Work on `Cc1cncc(C(=O)N2CCN(C3c4ccccc4C=Cc4ccccc43)CC2)c1` [NZ-784, (5-methyl-3-pyridyl)-[4-(2-tricyclo[9.4.0.03,8]pentadeca-1(11),3(8),4,6,9,12,14-heptaenyl)piperazin-1-yl]methanone] yielded an EC50 [1, 4] of 360 nM, an EC50 (HeLa-ACE2 cells) of over 9610 nM and a CC50 at 24 h [2] of 39400 nM. It also gave an IC50 ([3]; Table 2) of 88 nM.

With `Cc1cc(C(=O)N2CCC(C(O)(c3ccccc3)c3ccccc3)CC2)c[n+]([O-])c1` [NZ-792, [4-[hydroxy(diphenyl)methyl]-1-piperidyl]-(5-methyl-1-oxo-3-pyridyl)methanone] the EC50 [1, 7] was over 9610 nM, the EC50 (HeLa-ACE2 cells) was over 9610 nM and the CC50 at 24 h [2] was over 39800 nM. It also gave an IC50 ([3]; Table 2) of over 10000 nM.

`Cc1cncc(C(=O)N2CCN(C(c3ccccc3)c3ccc(S(C)(=O)=O)cc3)CC2)c1` (stereo not drawn) [NZ-799, 1-[(4-methanesulfonylphenyl)(phenyl)methyl]-4-(5-methylpyridine-3-carbonyl)piperazine] showed an EC50 [1, 4] of 2540 nM, an EC50 (HeLa-ACE2 cells) of 6580 nM and a CC50 at 24 h [2] of over 39800 nM. It also gave an IC50 ([3]; Table 2) of 1240 nM.

For `Cc1cncc(C(=O)N2CCC(=C3c4ccccc4CS(=O)(=O)c4ccccc43)CC2)c1` [NZ-801, [4-(5,5-dioxo-6H-benzo[c][1]benzothiepin-11-ylidene)-1-piperidyl]-(5-methyl-3-pyridyl)methanone], the EC50 [1, 5] was 42 nM, the EC50 [1, 4] was 42 nM and the EC50 (HeLa-ACE2 cells) was 81 nM. It also gave a CC50 at 24 h [2] of over 39800 nM, an IC50 ([3]; Table 2) of 56 nM and an IC50 [3, 6] of 12 nM.

Work on `O=C(c1cncc(Br)c1)N1CCC(=C2c3ccccc3CS(=O)(=O)c3ccccc32)CC1` [NZ-802, (5-bromo-3-pyridyl)-[4-(5,5-dioxo-6H-benzo[c][1]benzothiepin-11-ylidene)-1-piperidyl]methanone] yielded an EC50 [1, 4] of 60 nM, an EC50 (HeLa-ACE2 cells) of 41 nM and a CC50 at 24 h [2] of over 39800 nM. For the same compound, the IC50 ([3]; Table 2) was 67 nM.

`O=C(c1cncc2nc[nH]c12)N1CCC(=C2c3ccccc3CS(=O)(=O)c3ccccc32)CC1` [NZ-803, [4-(5,5-dioxo-6H-benzo[c][1]benzothiepin-11-ylidene)-1-piperidyl]-(1H-imidazo[4,5-c]pyridin-7-yl)methanone] showed an EC50 [1, 4] of 183 nM, an EC50 (HeLa-ACE2 cells) of 325 nM and a CC50 at 24 h [2] of over 39800 nM. For the same compound, the IC50 ([3]; Table 2) was 91 nM.

Compound `O=C(c1cncc2cc[nH]c12)N1CCC(=C2c3ccccc3CS(=O)(=O)c3ccccc32)CC1` [NZ-804, [4-(5,5-dioxo-6H-benzo[c][1]benzothiepin-11-ylidene)-1-piperidyl]-(1H-pyrrolo[3,2-c]pyridin-7-yl)methanone] has an EC50 [1, 5] of 15 nM, an EC50 [1, 4] of 15 nM and an EC50 (HeLa-ACE2 cells) of 162 nM. It also gave a CC50 at 24 h [2] of over 39800 nM, an IC50 ([3]; Table 2) of 30 nM and an IC50 [3, 6] of 9 nM.

With `O=C(c1cncc2[nH]ccc12)N1CCC(=C2c3ccccc3CS(=O)(=O)c3ccccc32)CC1` [NZ-805, [4-(5,5-dioxo-6H-benzo[c][1]benzothiepin-11-ylidene)-1-piperidyl]-(1H-pyrrolo[2,3-c]pyridin-4-yl)methanone] the EC50 [1, 5] was 58 nM, the EC50 [1, 4] was 58 nM and the EC50 (HeLa-ACE2 cells) was 64 nM. It also gave a CC50 at 24 h [2] of over 39800 nM, an IC50 ([3]; Table 2) of 48 nM and an IC50 [3, 6] of 14 nM.

In the case of `O=S1(=O)Cc2ccccc2C(N2CCC(C(O)c3cccnc3)CC2)c2ccccc21` (stereo not drawn) [NZ-806, [1-(5,5-dioxo-6,11-dihydrobenzo[c][1]benzothiepin-11-yl)-4-piperidyl]-(3-pyridyl)methanol], the EC50 [1, 7] is reported as over 9610 nM, the EC50 (HeLa-ACE2 cells) is reported as over 9610 nM and the CC50 at 24 h [2] is reported as over 39800 nM. For the same compound, the IC50 ([3]; Table 2) was 18900 nM.
